The source of these data is publication PMC8509676, “Residual Helicity at the Active Site of the Histidine Phosphocarrier, HPr, Modulates Binding Affinity to Its Natural Partners” (International Journal of Molecular Sciences, 2021).

Data set [1] concerns the target EI (Streptomyces coelicolor) (UniProt Q9KZP1). Kind of data set: ITC. The settings on record: cited from earlier work.
Data set [2] deals with Rsd (Escherichia coli) (UniProt C5A0T6). In words: ITC. The settings on record: cited from earlier work.
The nature of data set [3]: TFE titration followed by far-UV CD (disordered-helical two-state equilibrium). The class given is physicochemical. The settings on record: for [TFE]1/2 / m: TFE titration by far-UV CD, 20 µM peptide, two-state fit, fitting errors; for percentage of helical population (in parentheses): from ∆G^water assuming a two-state conformational equilibrium; for ∆G^water: product of m- and [TFE]1/2 values, error propagation. The procedure: For experiments in the presence of TFE, the same set of experimental parameters was used. Cosolvent concentrations were indicated in percentage of volume (%). […] The peptide concentration for these experiments was 20 µM.

Data set [4] in a line: Far-UV CD, helicity from molar ellipticity at 222 nm. As to conditions: 5 °C; for [Θ]^222 (value in parentheses): 50 mM Tris pH 7.0; for Helicity (%): 50 mM Tris pH 7.0, from [Θ]^222 assuming −39,500 deg cm^2 dmol^−1 for a fully formed α-helix. In kind it is physicochemical. How it is done: Spectra were collected on a Jasco J810 spectropolarimeter (Jasco, Tokyo, Japan) interfaced with a Peltier unit. Far-UV measurements were performed with samples placed in quartz cells with a 0.1 cm path length (Hellma, Kruibeke, Belgium), with a response time of 2 s, a band width of 1 nm, and a scan velocity of 50 nm/min. For all peptides, a wide range of concentrations (10–50 µM) was used to determine whether either the shape or the intensity of the spectra was concentration-dependent. None of those features changed in the concentration range explored. The experiments in aqueous solution were acquired at 5 °C in Tris buffer (50 mM, pH 7.0). Raw ellipticity was converted to molar ellipticity, [Θ], from which the fraction of helical populations was determined as previously described. For the experiments in the presence of each protein (repeated three times), the same concentration used in the fluorescence experiments was used, and the experimental set-up was the same as described above for the isolated peptides.

The target of data set [5] is T1, Rsd^ec (Escherichia coli, UniProt P0AFX4).
T1 construct: His-tag; made in house; host or cells: E. coli C41
In words: Isothermal titration calorimetry (ITC), peptide/Rsd^ec binding. As to conditions: for ΔH, Rsd^ec: 50 mM Tris pH 7.0. The procedure: (§1) The experimental set-up and data processing of ITC experiments has been described previously. Rsd^ec or EIN^sc (at 10–20 µM) were injected into the cell, and the peptides in the syringe (100–200 µM) in 50 mM of Tris buffer, pH 7.0. The temperature for all the experiments was 25 °C. Typically, each calorimetric titration consisted of performing 19 injections with 2 μL volume, with a time spacing of 150 s, while stirring at 750 rpm in an Auto-iTC200 high-sensitivity microcalorimeter (MicroCal, Malvern-Panalytical, Malvern, UK). The results were analysed by applying a model that considered a single binding site (assuming a 1:1 stoichiometry) for the peptide/EIN^sc or peptide/Rsd^ec interaction using a nonlinear least-squares regression analysis in Origin 7.0 (OriginLab, Northampton, MA, USA) with user-defined fitting routines.
A general note: ITC needs no label: the signal is the heat of the interaction.

In data set [6] the test system is Staphylococcus aureus CECT59. The class given is cell-based. As to conditions: S. aureus CECT59, two-fold broth microdilution (CLSI), MH broth, 24 h, 37 °C; triplicate (sd = 0); highest concentration tested 400 µM. The procedure: The CECT59 strain of the Gram-positive bacteria Staphylococcus aureus from the Spanish Type Culture Collection (Colección Española de Cultivos Tipo, CECT, Universitat de Valencia, Spain) was used for determining its sensitivity to the HPr peptides studied in this work. The MIC for each peptide was determined by the two-fold broth microdilution method according to the Clinical and Laboratory Standards Institute (CLSI) guidelines, with some modifications as previously described. For this testing procedure, a bacteria colony previously grown in MH agar plates was isolated and incubated in MH broth at 37 °C overnight to prepare the bacteria inoculum to be used in each assay. Then, the bacteria suspensions were adjusted to a 100× dilution of an 0.5 McFarland turbidity standard in MH broth and incubated with different concentrations of each peptide in round-bottom 96-well polystyrene plates (Deltalab S.L., Rubí, Spain) (50 μL/well) for 24 h at 37 °C. The peptide concentrations employed comprised two-fold dilutions starting at either 120, 160, or 400 µM, depending on the experiment. […] All assays were performed in triplicate.

Data set [7] has as its target EIN^sc (N-terminal domain of EI^sc) (Streptomyces coelicolor, UniProt Q9KZP1). Kind of data set: biochemical. The class given is binding. The procedure:
as §1

Data set [8] has as its target EIN^sc (Streptomyces coelicolor, UniProt Q9KZP1). Kind of data set: biochemical. In kind it is binding. The procedure:
(§2) Spectra were collected at 25 °C on a Cary spectrofluorometer (Agilent, Madrid, Spain), with a Peltier temperature controller. The samples were prepared the day before and left overnight at 5 °C. Before measurements, the samples were incubated for 1 h at 25 °C. A quartz cell with a 1 cm path length (Hellma, Kruibeke, Belgium) was used. In all the experiments, the slit widths were equal to 5 nm for both the excitation and emission lights. Protein samples were excited at either 280 or 295 nm. The experiments were performed between 300 and 400 nm. The signal was acquired for 1 s, and the increment of wavelength was set to 1 nm. Appropriate blank corrections were made in all spectra. For the binding experiments, 3 µM of either protein (Rsd^ec or EIN^sc) and 15 µM of the corresponding peptide were mixed. The experiments in aqueous solution were acquired in Tris buffer (50 mM, pH 7.0).
(§3) For the titration between either of the two proteins (Rsd^ec or EIN^sc) and the corresponding peptide, increasing amounts of the latter, in a concentration range of 0 to 30 µM, were added to a solution with a fixed concentration of each protein (3 µM). The experimental set-up was identical to that described above, including preparation of the samples the day before and their storage overnight at 5 °C. Before measurements, the samples were incubated for 1 h at 25 °C. The fluorescence of a blank solution containing only the corresponding peptide was subtracted for each data point. […] The Kd was determined by following the fluorescence at selected wavelengths and fitting experimental data to Equation (1). […] At all used concentrations, the fluorescence was corrected by the inner-filter effects.

Data set [9] can be described thus: Translational diffusion NMR (DOSY). As to conditions: for D (translational diffusion coefficient): DOSY, 10 °C, 100% D2O, 70-120 µM peptide, fitting errors, repeated twice; for Rh (in parentheses, from DOSY): from comparison with the Rh of dioxane (2.12 Å). In kind it is physicochemical. The procedure: (b) Translational diffusion NMR (DOSY): Peptide concentrations were the same as those used in the 1D-^1H-NMR spectra. Translational self-diffusion measurements were performed with the pulsed-gradient spin-echo sequence in the presence of 100% D2O. The following relationship existed between the translational self-diffusion coefficient, D, and the delays used during experiment acquisition:(2) I/I0=−exp(DγH2δ^2G^2(Δ−δ/3−τ/2)) where I is the peak intensity of a particular resonance (or a group of them) at any gradient strength; I0 is the maximum peak intensity of the same resonance(s) at the smallest gradient strength (that is, at 2% of the total power of the gradient coil); D is the translational self-diffusion constant (in cm^2 s^−1); δ is the duration (in s) of the gradient; G is the gradient strength (in T cm^−1); ∆ is the time (in s) between the gradients; γH is the gyromagnetic constant of the proton (in rad s^−1 T^−1); and τ is the recovery delay between the bipolar gradients (100 µs in our experiments). The gradient strength (G) was varied in 16 lineal steps, between 2 and 95% of the total power of the gradient coil of the probe. The gradient strength was calibrated by using the value of D for the residual proton water line in a sample containing 100% D2O placed in a 5 mm tube [42]. Data were plotted as I/I0 versus G^2, and the exponential factor of the curve was:(3) DγH2δ^2(Δ−δ/3−τ/2) from which D can be obtained. The duration of the gradient (δ) was 2.25 ms, and the time between the two gradients (∆) was set to 200 ms. The signal from the methyl groups between 1.1 and 0.70 ppm were used for integration of the intensity. A final concentration of 1% of dioxane was added to each peptide; the hydrodynamic radius, Rh, of each peptide was obtained for comparison by assuming that the Rh of dioxane was 2.12 Å [42]. The DOSY experiment was repeated twice with fresh samples for each peptide.

For data set [10], the target named is T1, Rsd^ec. Kind of data set: Fluorescence titration, peptide/Rsd^ec binding. How it is done:
as §2, §3

Data set [11] has as its target EI EIN (Streptomyces coelicolor) (UniProt Q9KZP1). Kind of data set: ITC. As to conditions: cited from earlier work.
The target in data set [12] is T2, Regulator of sigma D from Escherichia coli (Rsd^ec) (E. coli, UniProt P0AFX4 1-158).
T2 construct: Rsd (regulator of sigma D), anti-sigma factor of sigma 70, E. coli; 158-residue-long protein; called 'intact Rsd' in the abstract and 'wild-type Rsd vector' in the methods; Vector was a gift from Ann Hochschild; source: E. coli C41, purified as described [24,50]
T2 sequence (looked up): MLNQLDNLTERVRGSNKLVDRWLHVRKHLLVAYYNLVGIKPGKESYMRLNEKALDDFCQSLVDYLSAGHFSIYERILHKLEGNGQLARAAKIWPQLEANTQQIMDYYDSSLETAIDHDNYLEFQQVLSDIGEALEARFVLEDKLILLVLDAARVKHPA
Kind of data set: ITC; Rsd^ec or EIN^sc (10–20 µM) in the cell, peptide (100–200 µM) in the syringe; 50 mM Tris, pH 7.0, 25 °C; single binding-site model, 1:1 stoichiometry assumed. The settings on record: both partners purified.

Data set [13] has as its target T2, Regulator of sigma D from Escherichia …. Kind of data set: other fluorescence titration; peptide 0–30 µM added to 3 µM Rsd^ec or EIN^sc; 50 mM Tris, pH 7.0, 25 °C; samples left overnight at 5 °C; blank of peptide subtracted. The settings on record: both partners purified.

Read-outs that look alike come from different tables or passages of the source.

Sequence of EIN^sc (Q9KZP1 1-230): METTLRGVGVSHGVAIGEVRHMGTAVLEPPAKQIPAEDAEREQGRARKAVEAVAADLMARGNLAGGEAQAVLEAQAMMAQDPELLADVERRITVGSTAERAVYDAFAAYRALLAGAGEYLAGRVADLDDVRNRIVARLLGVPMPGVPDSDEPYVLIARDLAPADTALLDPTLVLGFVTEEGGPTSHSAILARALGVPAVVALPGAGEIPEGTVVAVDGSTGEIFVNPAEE
Sequence of EIN^sc (N-terminal domain of EI^sc) (Q9KZP1 1-230): as above
Sequence of EI EIN (Streptomyces coelicolor) (Q9KZP1 1-250): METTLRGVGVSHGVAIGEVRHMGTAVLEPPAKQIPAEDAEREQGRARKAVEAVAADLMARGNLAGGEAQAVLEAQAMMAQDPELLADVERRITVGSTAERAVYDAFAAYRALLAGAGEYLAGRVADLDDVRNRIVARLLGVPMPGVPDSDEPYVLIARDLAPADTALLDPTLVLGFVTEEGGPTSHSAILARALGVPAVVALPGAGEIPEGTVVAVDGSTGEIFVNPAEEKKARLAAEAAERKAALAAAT
Sequence of EI (Streptomyces coelicolor) (Q9KZP1 whole entry): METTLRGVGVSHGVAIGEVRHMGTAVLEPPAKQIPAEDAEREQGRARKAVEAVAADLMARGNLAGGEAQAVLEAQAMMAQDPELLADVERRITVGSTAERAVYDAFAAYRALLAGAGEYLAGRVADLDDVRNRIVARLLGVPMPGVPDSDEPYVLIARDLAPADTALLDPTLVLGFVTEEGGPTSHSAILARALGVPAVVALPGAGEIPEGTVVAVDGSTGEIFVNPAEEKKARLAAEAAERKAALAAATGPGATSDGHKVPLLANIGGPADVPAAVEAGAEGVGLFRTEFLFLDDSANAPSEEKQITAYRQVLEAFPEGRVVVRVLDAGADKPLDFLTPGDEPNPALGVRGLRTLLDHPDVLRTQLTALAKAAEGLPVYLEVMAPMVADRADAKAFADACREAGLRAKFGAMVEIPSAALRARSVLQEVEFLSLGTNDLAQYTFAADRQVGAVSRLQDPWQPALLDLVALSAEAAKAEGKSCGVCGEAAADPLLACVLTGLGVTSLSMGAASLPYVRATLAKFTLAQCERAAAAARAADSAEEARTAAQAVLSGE

Turning to HPr 9-30 (from UniProt O50515), the Kd in data set [1] was 230 µM; in data set [2], 2.5 µM.

In the case of “Ac-GWAEGLHARPASIFARAATATG-NH2 [Peptide V23A]”, in [3], the “[TFE]1/2” value was 22.7 ± 0.3 % (v/v), the m is listed as 217 ± 23 cal/mol (% (v/v)), the “percentage of helical population (in parentheses)” value (“percentage of helical population” below) is 0.01% and the “∆G^water” value is 4.9 ± 0.5 kcal/mol. Further, in data set [4], the “[Θ]^222 (value in parentheses)” value is −988.51 deg cm^2 dmol^−1 and the “Helicity (%)” value is 2.5%. Also, in data set [5] (ITC, 25 °C), the “ΔH, Rsd^ec” value was -0.8 ± 0.5 kcal/mol. Moreover, in data set [6], the MIC (in general, the least concentration at which growth counts as inhibited) is listed as over 400 µM. In addition, the Kd in data set [7] is 9.1 ± 0.9 µM. In [7] (ITC, 25 °C, 50 mM Tris pH 7.0), the “ΔH, EIN^sc” value was -6.6 ± 0.5 kcal/mol. Also, in data set [8], the Kd came to 9 µM. In addition, in data set [9], the “D (translational diffusion coefficient)” value was determined as 2.0 ± 0.1 cm^2 s^−1 × 10^6 and the “Rh (in parentheses, from DOSY)” value was 11 ± 1 Å.

As for “Ac-GWAEGLHARPASAFVRAATATG-NH2 [Peptide I21A]”, in [3], the “[TFE]1/2” value was 23.8 ± 0.4 % (v/v), the m was 197 ± 20 cal/mol (% (v/v)), the “percentage of helical population” value is recorded as 0.02% and the “∆G^water” value came to 4.7 ± 0.5 kcal/mol. Moreover, in data set [10], the Kd is 8 µM. Further, in data set [4], the “[Θ]^222 (value in parentheses)” value is −681.95 deg cm^2 dmol^−1 and the “Helicity (%)” value turned out to be 1.7%. In data set [5], this molecule had a Kd of 2.6 ± 0.4 µM. Moreover, the “ΔH, Rsd^ec” value in data set [5] (ITC, 25 °C) stood at 1.0 ± 0.4 kcal/mol. In addition, the minimum inhibitory concentration (MIC) in data set [6] is over 400 µM. In addition, in data set [9], the “D (translational diffusion coefficient)” value turned out to be 1.9 ± 0.1 cm^2 s^−1 × 10^6 and the “Rh (in parentheses, from DOSY)” value is on record as 11 ± 1 Å.

For the molecule “Ac-GWAEGLHARAASAAARAATATG-NH2 [P18A/I21A/F22A/V23A]”, in data set [3], the “[TFE]1/2” value was 21 ± 1 % (v/v), the m is 157 ± 26 cal/mol (% (v/v)), the “percentage of helical population” value is 0.24% and the “∆G^water” value is recorded as 3.3 ± 0.6 kcal/mol. Moreover, the Kd in data set [10] (fluorescence titration, 3 µM protein, 0-30 µM peptide, 25 °C, 50 mM Tris pH 7.0, uncertainties are fitting errors, repeated three times, read-out: Kd, Rsd^ec (fluorescence titration, value in parentheses) (converted)) was 10 µM. In data set [4], the “[Θ]^222 (value in parentheses)” value is recorded as −7305.73 deg cm^2 dmol^−1 and the “Helicity (%)” value is 18.4%. The “ΔH, Rsd^ec” value in data set [5] (ITC, 25 °C) is given as 4.3 ± 0.5 kcal/mol. Further, in data set [5] (ITC, 25 °C, 50 mM Tris pH 7.0, single binding-site model, read-out: Kd, Rsd^ec (ITC)), the Kd was found to be 5 ± 0.7 µM. Further, the minimal inhibitory concentration (MIC) in [6] is listed as over 400 µM. Further, the Kd in data set [8] (fluorescence titration, 3 µM protein, 0-30 µM peptide, 25 °C, 50 mM Tris pH 7.0, uncertainties are fitting errors, repeated three times, read-out: Kd, EIN^sc (fluorescence titration, value in parentheses)) was 11 µM. Moreover, in data set [9], the “D (translational diffusion coefficient)” value is on record as 1.7 ± 0.1 cm^2 s^−1 × 10^6 and the “Rh (in parentheses, from DOSY)” value turned out to be 12 ± 2 Å.

With HPr (from UniProt O50515), the Kd in data set [11] was 12 µM; in [2], 2 µM.

B1: HPr^9–30 F22A peptide (peptide)
peptide: Ac-GWAEGLHARPASIAVRAATATG-NH2
notes: HPr of Streptomyces coelicolor, residues 9-30, with F22A; source: synthetic peptide, bought: NZYTech (purity >95%)
As for B1, in data set [12], the Kd stood at 5.9 ± 0.7 µM and the dH was found to be 1.1 ± 0.5 kcal/mol. In data set [13], this molecule displayed a Kd of 11 µM.
